Data: patent US5523312A, “Antipicornaviral agents” (priority 1994, dated 1996)
In brackets after ≈: the same amount, converted by molar mass.

system: human rhinovirus (HRV) serotypes, panel B (HRV-3, -4, -5, -9, -16, -18, -38, -66, -75 and -67); test: automated TCID-50 assay, rhinovirus-induced CPE in HeLa cells, panel B; assay type: cell-based; conditions: Human rhinovirus sp., HRV3, 72 h, read-out: MIC50 (minimum concentration of the compound required to inhibit 50% of the tested serotypes)
Method: (§1) The MIC values were determined by an automated tissue culture infectious dose 50% (TCID-50) assay. HeLa cells in monoloyers in 96-well cluster plates were infected with a dilution of picornavirus which had been shown empirically to produce 80% to 100% cytopathic effect (CPE) in 3 days in the absence of drug. The compound to be tested was serially diluted through 10, 2-fold cycles and added to the infected cells. After a 3 day incubation at 33° C. and 2.5% carbon dioxide, the cells were fixed with a 5% solution of glutaraldehyde followed by staining with a 0.25% solution of crystal violet in water. The plates were then rinsed, dried, and the amount of stain remaining in the well (a measure of intact cells) was quantitated with an optical density reader. The MIC was determined to be the concentration of compound which protected 50% of the cells from picornavirus-induced CPE relative to an untreated picornavirus control.
(§2) In the above test procedures, representative compounds of formula I were tested against some the serotypes from either a panel of fifteen human rhinovirus (HRV) serotypes, (noted in the table as panel T) namely, HRV-2, -14, -1A, -1B, -6, -21, -22, -15, -25, -30, -50, -67, -89, -86 and -41 or against some of the serotypes from a panel of 10 human rhinovirus serotypes, namely HRV-3, -4, -5, -9, -16, -18, -38, -66, -75 and -67, (noted in the table as panel B) and the MIC value, expressed in micrograms per milliliter […], for each rhinopicornavirus serotype was determined for each picornavirus, example 1e is given as an example of the data. Then MIC50 values, which are the minimum concentrations of the compound required to inhibit 50% of the tested serotypes were determined.
(§3) The following Table gives the test results for representative compounds of the invention. The panel of picornaviruses used in the test appears before the MIC80 and MIC50 figure and the number of serotypes which the compound is tested against (n) is indicated after the MIC80 and MIC50 figure.

Compound | MIC50 [µg/mL]
Cc1cc(CCCn2ccc3cc(-c4noc(C)n4)ccc32)on1 [Example 2c] | 50.9 (≈ 158 µM)
Cc1cc(CCCCCn2ccc3cc(-c4noc(C(F)(F)F)n4)cc(C)c32)on1 [Example 2f] | 0.307 (≈ 0.734 µM)
Cc1cc(CCCn2ccc3cc(-c4noc(C)n4)cc(C)c32)on1 [Example 2h] | 0.158 (≈ 0.47 µM)
Cc1cc(CCCCCn2ccc3cc(-c4noc(C(F)F)n4)cc(C)c32)on1 [Example 2e] | 3.13 (≈ 7.82 µM)
Cc1cc(CCCn2ccc3cc(-c4noc(C(F)F)n4)ccc32)on1 [Example 2g] | 69.4 (≈ 194 µM)
Cc1cc(CCCCn2ccc3cc(-c4noc(C(F)(F)F)n4)cc(C)c32)on1 [Example 2d] | 0.5 (≈ 1.24 µM)
Cc1cc(CCCn2ccc3cc(-c4noc(C(F)(F)F)n4)ccc32)on1 [Example 2i] | 0.549 (≈ 1.46 µM)

system: not listed separately; test: automated TCID-50 assay, rhinovirus-induced CPE in HeLa cells, panel T; assay type: cell-based; conditions: Human rhinovirus sp., HRV2, 72 h, read-out: MIC50 (minimum concentration of the compound required to inhibit 50% of the tested serotypes)
Method: as §1, §2, §3

Compound | MIC50 [µg/mL]
Cc1cc(CCCCCc2cc3cc(C4=NCCO4)ccc3o2)on1 [Example 1k] | 0.585 (≈ 1.73 µM)
Cc1cc(CCCc2cc3cc(-c4nnn(C)n4)cc(C)c3o2)on1 [Example 1m] | 0.192 (≈ 0.569 µM)
Cc1cc(CCCCc2cc3cc(-c4noc(C(F)(F)F)n4)cc(C)c3o2)on1 [Example 1i] | 37.4 (≈ 92.2 µM)
Cc1cc(CCCCCc2cc3cc(C(=O)O)ccc3o2)on1 [Example 1j] | 51.1 (≈ 163 µM)
Cc1cc(CCc2cc3cc(-c4nnn(C)n4)cc(C)c3o2)on1 [Example 1n] | 33.8 (≈ 105 µM)
Cc1cc(CCCc2cc3cc(-c4noc(C)n4)cc(C)c3o2)on1 [Example 1g] | 6.85 (≈ 20.3 µM)
Cc1cc(CCCCc2cc3cc(-c4noc(C)n4)ccc3o2)on1 [Example 1f] | 19.9 (≈ 59 µM)
Cc1cc(CCCCc2cc3cc(-c4noc(C)n4)cc(Cl)c3o2)on1 [Example 1h] | 0.124 (≈ 0.333 µM)
CCCCn1nnc(-c2cc(C)c3oc(CCCCc4cc(C)no4)cc3c2)n1 [Example 1l] | 49.8 (≈ 127 µM)
